The text below walks through data of patent US20230070582A1, “UTILIZATION OF FGF ACTIVATORS IN CULTURE MEDIA” (Yissum Research Development Company of the Hebrew …, priority 2020, published 2023).

The subject of assay [1] is Bovine fibroblasts adapted to suspension culture. The assay can be described thus: Bovine fibroblast cell growth in serum-free suspension culture, cell count on Day 3. It is filed as cell-based. The settings on record: Day 3 count, FIG. 1. On the procedure: Effects of ID-8 and/or FK-506 (alone or combined) on bovine fibroblast cell growth were evaluated. Bovine fibroblasts adapted to suspension culture were seeded in 0.3 millions/ml in a total volume of 20 ml in cell culture flasks. The flasks were kept in a shaker incubator with 100 rpm, 37° C., and 5% CO2. Cell counts were done on Day 3 using automatic cell counter (Cellaca®) with APOI staining to eliminate the dead cells from the counts.

The next assay relates to ovine fibroblasts. As to the kind of experiment: XTT cell proliferation assay, ovine fibroblasts 2D culture, gradient concentrations. The format is cell-based. The conditions noted are these: FIG. 3. On the procedure:
The effects of gradient concentration of both small molecules (ID-8 and FK-506) in ranges from about 1-50 μM for ID-8 and about 1-50 nM for FK-506 were tested on ovine fibroblasts 2D culture. Ovine fibroblasts were seeded in 96-well plate at a density of 1000 cells/well. ID-8 and FK-506 in serum free medium were incubated with the fibroblast cells for 48 hours before adding XTT (cell proliferation assay from Biological Industries, Israel) according to company protocol. Colorimetric signal was measured after 8 hours of XTT addition. Blank (medium only) measurements were subtracted from the sample measurements (n=4).
(In general: Tetrazolium dyes change colour on reduction, which living cells bring about.)

Another assay relates to mouse ESCs. The settings on record: serum-free culture; Miyabayashi et al. 2008; cited from earlier work.
Another assay relates to FGF pathway. The conditions noted are these: by activating ERK pathway; zebrafish heart model; Molina et al. 2009; cited from earlier work.

For `COc1ccc(-n2c(C)c([N+](=O)[O-])c3ccc(O)cc32)cc1` [ID-8], the “effect on bovine fibroblast cell growth as compared to FGF (10 ng/ml)” value in assay [1] (ID-8 alone 1 μM) was “comparable effect”. Moreover, the “ovine fibroblast cell growth versus control (no FGF)” value with ovine fibroblasts (higher concentrations of ID-8, e.g. 10 μM or 50 μM) is reported as “more cell growth than the control”. Also, the “concentration of ID-8 giving the best cell growth (optimal concentration)” value with ovine fibroblasts (in combination with FK-506, 48 hours) was in the range of 1 to 5 µM. The “self-renewal of mouse ESCs” value in the assay on mouse ESCs is recorded as “support self-renewal”.
In the case of `Cl.O=C1/C(=C/c2ccccc2)C(NC2CCCCC2)c2ccccc21` (mixture of isomers) [(E/Z)-BCI hydrochloride], the “effect on FGF pathway” value with FGF pathway is recorded as “hyperactivates FGF pathway”.
As for `C=CC[C@@H]1/C=C(\C)C[C@H](C)C[C@H](OC)[C@H]2O[C@@](O)(C(=O)C(=O)N3CCCC[C@H]3C(=O)O[C@H](/C(C)=C/[C@@H]3CC[C@@H](O)[C@H](OC)C3)[C@H](C)[C@@H](O)CC1=O)[C@H](C)C[C@@H]2OC` [FK-506, Tacrolimus], the “effect on bovine fibroblast cell growth as compared to FGF (10 ng/ml)” value in assay [1] (FK-506 alone 2 nM) was “didn't obtain a comparable effect”. Besides, in the assay on ovine fibroblasts (higher concentration of FK-506, e.g. 5 nM, 20 nM or 50 nM, with ID-8 at 1 μM), the “effect on ovine fibroblast cell growth” value is given as “did not show significant effect on cell growth”. The “concentration of FK-506 giving the best cell growth (optimal concentration)” value in the assay on ovine fibroblasts (in combination with ID-8, 48 hours) is 1 to 2 nM.
